{
  "source": "patent US20260137701A1",
  "about": "“CHOLESTENOIC ACID (CA) AND A SULFATED DERIVATIVE THEREOF, 3[BETA]-SULFATE-5-CHOLESTENOIC ACID (CA3S), AS ENDOGENOUS EPIGENETIC REGULATORS” (priority 2022, published 2026)",
  "key": {"[1]": {"target": "recombinant DNMT1 (Homo sapiens, UniProt P26358)", "sequence (P26358 whole entry)": "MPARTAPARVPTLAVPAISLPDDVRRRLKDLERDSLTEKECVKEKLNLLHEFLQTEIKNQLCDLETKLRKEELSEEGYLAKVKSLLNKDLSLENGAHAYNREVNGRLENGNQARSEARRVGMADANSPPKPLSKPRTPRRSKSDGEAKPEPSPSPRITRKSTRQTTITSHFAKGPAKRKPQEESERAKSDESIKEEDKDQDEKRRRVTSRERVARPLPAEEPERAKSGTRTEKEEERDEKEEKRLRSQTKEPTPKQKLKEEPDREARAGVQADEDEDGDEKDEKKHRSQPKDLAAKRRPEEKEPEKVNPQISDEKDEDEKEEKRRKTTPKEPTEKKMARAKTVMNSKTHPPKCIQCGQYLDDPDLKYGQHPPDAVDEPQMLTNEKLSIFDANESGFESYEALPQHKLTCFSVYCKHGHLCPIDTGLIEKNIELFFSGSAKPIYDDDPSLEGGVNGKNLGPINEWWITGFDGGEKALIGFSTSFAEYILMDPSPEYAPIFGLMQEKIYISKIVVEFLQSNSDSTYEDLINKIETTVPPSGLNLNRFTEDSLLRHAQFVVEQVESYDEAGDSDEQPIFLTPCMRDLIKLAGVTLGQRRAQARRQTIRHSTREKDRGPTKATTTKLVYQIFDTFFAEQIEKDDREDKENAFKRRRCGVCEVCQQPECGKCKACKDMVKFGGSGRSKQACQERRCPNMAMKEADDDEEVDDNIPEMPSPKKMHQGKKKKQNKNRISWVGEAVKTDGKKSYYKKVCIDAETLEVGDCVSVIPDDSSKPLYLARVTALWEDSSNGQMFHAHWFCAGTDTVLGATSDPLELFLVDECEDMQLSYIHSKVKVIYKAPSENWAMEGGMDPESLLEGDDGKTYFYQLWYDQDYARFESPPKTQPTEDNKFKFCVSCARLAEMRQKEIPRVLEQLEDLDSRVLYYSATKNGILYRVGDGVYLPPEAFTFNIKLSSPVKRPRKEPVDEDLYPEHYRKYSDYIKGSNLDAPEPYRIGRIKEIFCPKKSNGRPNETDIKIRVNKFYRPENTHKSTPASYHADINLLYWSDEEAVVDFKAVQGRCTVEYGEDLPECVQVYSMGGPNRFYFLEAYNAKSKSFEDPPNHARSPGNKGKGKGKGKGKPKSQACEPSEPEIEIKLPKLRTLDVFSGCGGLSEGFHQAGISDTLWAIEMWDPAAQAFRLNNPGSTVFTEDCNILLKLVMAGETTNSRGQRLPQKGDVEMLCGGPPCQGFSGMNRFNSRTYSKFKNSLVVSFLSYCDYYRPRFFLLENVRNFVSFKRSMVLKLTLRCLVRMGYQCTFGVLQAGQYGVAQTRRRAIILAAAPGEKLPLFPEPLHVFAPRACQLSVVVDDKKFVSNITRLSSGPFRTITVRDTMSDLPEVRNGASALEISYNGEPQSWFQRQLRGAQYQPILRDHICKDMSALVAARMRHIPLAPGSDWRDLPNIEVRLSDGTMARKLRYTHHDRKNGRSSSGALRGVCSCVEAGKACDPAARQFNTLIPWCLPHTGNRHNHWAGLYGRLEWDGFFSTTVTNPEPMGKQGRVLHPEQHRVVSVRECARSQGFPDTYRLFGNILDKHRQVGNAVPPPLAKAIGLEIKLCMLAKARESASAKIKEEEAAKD", "assay": "DNMT1 enzyme kinetic (activity) assay, 3H-SAM filter", "assay_type": "biochemical", "experimental": "(§1) The enzyme kinetic studies were carried out by Reaction Biology Company. For the DNMT1 activity assay, the substrate solution, 0.001 mg/ml Poly(dI-dC): Poly(dI-dC) in 50 mM Tris-HCl, pH 7.5, 50 mM NaCl, 5 mM EDTA, 5 mM DTT, 1 mM PMSF, 5% glycerol, 0.01% Brij™35, 1% DMSO was used. For the DNMT3a/3b activity assay, 0.0075 mg/ml Lambda DNA in 50 mM Tris-HCl, pH 7.5, 50 mM NaCl, 5 mM EDTA, 5 mM DTT, 1 mM PMSF, 5% glycerol, 1% DMSO, was used. The indicated DNMT1, DNMT3a and DNMT3b were added to the appropriate substrate solution and gently mixed. Amounts of CA ranging from 5.08E-09 to 0.0001 M in DMSO were added to the reaction mixture by using Acoustic Technology (Echo® 550, LabCyte Inc. Sunnyvale, CA). The mixtures were first incubated for 15 min, then ^3H-SAM was added to the reaction mixture to initiate the reaction, and the mixture was incubated for 60 min at 30° C. Following incubation, the reaction mixture was finally transferred to filter-paper for detection of radioactivity counts."}, "[2]": {"system": "HepG-2 cells", "assay": "HepG-2 cell death", "assay_type": "cell-based, human"}, "[3]": {"target": "recombinant DNMT3b (Homo sapiens, UniProt Q9UBC3)", "assay": "DNMT3b enzyme kinetic (activity) assay, 3H-SAM filter", "assay_type": "biochemical", "conditions": "read-out: IC50, inhibits DNMT3b activity", "experimental": "as §1"}, "[4]": {"system": "AMPK", "assay": "Western blot analysis of AMPK protein", "assay_type": "cell-based, human", "conditions": "HepG-2, high glucose media, 20 μM CA, 24 hours", "experimental": "Specific proteins were analyzed by western blot. The proteins were extracted using M-PER™ Mammalian Protein Extraction Reagents (Fisher Scientific). For each sample, 20 μg of proteins were separated on 8%-12% SDS polyacrylamide gel electrophoresis (SDS-PAGE) gels. Electrophoresis was performed at 100V for 15 min and 200V for another 25 min in a Bio-Rad mini-gel system. After electrophoresis, samples were transferred onto a polyvinylidene difluoride (PVDF) membrane at 30V for 50 min. The specific proteins on the membrane were detected by incubation with anti-AMPKα1/2 (Santa Cruz Biotechnologies) primary antibody at 4° C. overnight, followed by further incubation with an appropriate horseradish peroxidase (HRP)-conjugated secondary antibody (Bio-Rad) at room temperature for 1 hr. Each positive band was quantified by Advanced Image Data Analyzer (Aida, Straubenhardt, Germany)."}},
  "note": "pEC50, pIC50: −log10 of the molar value.",
  "data": [
    {"compound": "CC(CCC[C@@H](C)[C@H]1CC[C@H]2[C@@H]3CC=C4C[C@@H](O)CC[C@]4(C)[C@H]3CC[C@]12C)C(=O)O", "note": "(stereo partly drawn) [CA, 3β-hydroxy-5-cholestenoic acid]", "values": [
      {"measurement": "pIC50", "setting": "[1]; at higher concentration, read-out: IC50, inhibits DNMT1 activity", "value": 5.04},
      {"measurement": "pEC50", "setting": "[1]; at low concentration, mean±SD, n=3, read-out: EC50, activates DNMT1", "value": 5.70},
      {"measurement": "HepG-2 cell death", "setting": "[2]", "value": "induces HepG-2 cell death"},
      {"measurement": "pIC50", "setting": "[3]", "value": 5.31},
      {"measurement": "protein levels of AMPK", "setting": "[4]", "value": "significantly increased"}
    ]}
  ]
}
